Laboratory results reported in US20240108753A1, “NUCLEIC ACID DELIVERY” (NUNTIUS THERAPEUTICS LIMITED, priority 2021, published 2024).

Columns and labels:
[1] = Hydrodynamic size, polydispersity index and zeta potential of dendrimer, lipid and mRNA complexes; format: physicochemical; settings: DOTMA/DOPE w/w 10:1 to mRNA; for Hydrodynamic size: dendrimer, lipid and mRNA complexes
Method: The hydrodynamic size, polydispersity index and Zeta potential was determined for a set of the dendrimers disclosed in Tables 1 and 2.

[2] = system: HeLa cells; assay: mRNA (eGFP) transfection with peptide dendrimers and DOTMA/DOPE in full growth medium; format: cell-based, human; settings: for mRNA transfection efficiency (eGFP), in words: HeLa, full growth medium, DOTMA/DOPE w/w 10:1 to mRNA, relative to G1,2-RL, 3-LR
Method: FIG. 28. mRNA transfection of the peptide dendrimers with lipid system in vitro. […] The mRNA used expressed an eGFP reporter gene. Following a 24 hour transfection, the cells were harvested to assay the eGFP expression. The eGFP expression was normalised with the total amount of protein of each transfection. The gene expression level was calculated by normalising the transfection value of the G1,2-RL, 3-LR, DOTMA/DOPE & mRNA treated cells. 1st, 2nd and 3rd generation dendrimers with varying cores and 1st, 2nd, and 3rd generation peptide motifs can transfect cells with mRNA effectively under the tested conditions.
FIG. 29. mRNA transfection of the peptide dendrimers with lipid system in vitro. HeLa cells were transfected with mRNA alone or mRNA with peptide dendrimers and DOTMA/DOPE (w/w=10:1 to mRNA). The N:P ratio of G1,2-RL,3-LR was at 0.16:1 while the N:P ratios of all other dendrimers at 8:1. The mRNA used expressed an eGFP reporter gene. Following a 24 hour transfection, the cells were harvested to assay the eGFP expression. The eGFP expression was normalised with the total amount of protein of each transfection. The gene expression level was calculated by normalising the transfection value of the G1,2-RL, 3-LR, DOTMA/DOPE & mRNA treated cells. 1st, 2nd and 3rd generation dendrimers with varying cores and 1st, 2nd, and 3rd generation peptide motifs can transfect cells with mRNA effectively under the tested conditions.
The effect on the number of generations of dendrimers on mRNA delivery was studied by transfecting HeLa cells in full growth medium conditions.

[3] = system: mice tissue; assay: In vivo luciferase mRNA expression assays; settings: intravenous; N:P 0.15:1 or 8:1; 6 hours
Method: Peptide dendrimers were diluted to a respective concentration and mixed with mRNA for a desired NP ratio such as NP=0.15:1 or 8:1. The solution was incubated in room temperature for 10 mins. Lipid such as DOTMA/DOPE was diluted to a respective concentration and mixed with the dendrimer-mRNA complexes for a desired NP ratio such as NP-4.7:1. The solution was incubated in room temperature for 20 mins. When required, the solution would be further diluted before injection.
All animal procedures conducted in our studies complied with UK laws and were inclusive of ethics approval. Female CD-1 mice (n=39) aged 6-8 weeks left to habituate for 1-week upon their arrival. All mice were weighed, and the formulations were delivered intravenously (100 μl) via the tail vein using 30G insulin syringes (BD biosciences).
All mice were imaged 6 hours post injection. BLI was performed using an IVIS Lumina II (Perkin Elmer) Imaging system. Mice were administered D-luciferin (30 mg/mL, XenoLight, Perkin Elmer) at a dose of 150 mg/kg. Mice were anaesthetised 6 mins after receiving D-luciferin in a chamber with 5% isoflurane and then placed on a heated imaging platform while being maintained on 2.5% isoflurane. Mice were imaged 10 min post administration of D-luciferin with an exposure time set to ensure the signal acquired was within an effective detection range (open filter, binning 8, f-stop 1). Bioluminescence signal was quantified by measuring photon flux (photons/s) in the defined region of interest (ROI) using the Living Image software (Perkin Elmer). Following in vivo whole-body imaging, the mice were euthanised, cardiac blood taken, and the tissues extracted for ex vivo imaging. Here each tissue was placed into individual wells of a 24-well imaging plate (black sided, Eppendorf) containing 0.3 mg/mL D-luciferin in PBS). The imaging plate was placed in the centre of imaging platform (Lumina II system) and signal was measured using the acquisition settings detailed above. Finally, the tissues were placed in storage vials and flash frozen in liquid nitrogen.
Mice were injected with a composition comprising DOTMA/DOPE, mRNA encoding luciferase and either G1,2,3-RL, (FIG. 10, top panel; the “G1,2,3-RL, lipid and mRNA formulation”) or G1,2-RL,3-LR (FIG. 10, bottom panel: the “G1,2,3-RL, lipid and mRNA formulation”). Each formulation was prepared and injected at an NP ratio of 8:1 and 0.15:1. Mice were prepared for detection of luciferase expression post injection.

| Substance | Polydispersity Index (PDI) ([1]; N:P 0.16:1) | Zeta Potential ([1]; N:P 0.16:1) [mV] | Polydispersity Index (PDI) ([1]; N:P 8:1) | Zeta Potential ([1]; N:P 8:1) [mV] | Hydrodynamic size ([1]; N:P 0.16:1) [nm] | Hydrodynamic size ([1]; N:P 8:1) [nm] | mRNA transfection efficiency (eGFP), in words [2] | targeting mRNA delivery to the spleen and lung compared to G1,2-RL, 3-LR [3] | mRNA transfection efficiency as share of the improved formulation (DOTMA/DOPE w/w=10:1, N:P=0.16:1) ([2]; DOTMA/DOPE w/w=2:1 to mRNA and N:P=20:1) [%] |
| --- | --- | --- | --- | --- | --- | --- | --- | --- | --- |
| (LR)4(KRL)2KRHC-NH2 [RHCG1-RL, 2-LR] | 0.155 | 41 | 0.109 | 46 | 117 | 206 | can transfect cells effectively | higher efficiency than the third generation dendrimer G1,2-RL, 3-LR |  |
| (LR)8(KRL)4(KRL)2KGSCRHCRFWRYM-NH2 [LinearG1,2-RL, 3-LR] | 0.143 | 42 | 0.289 | 54 | 118 | 62 | transfection efficiency was not affected |  |  |
| (RR)4(KLL)2KGSC-NH2 [G1-LL, 2-RR] | 0.124 | 41 | 0.087 | 47 | 135 | 213 | can be used to deliver mRNA |  | 10 |
| (R)4(KR)2KRHC-NH2 [RHCG1,2-R] | 0.114 | 37 | 0.252 | 49 | 123 | 172 | can transfect cells effectively |  |  |
| (LR)2KRHC-NH2 [RHCG1-LR] | 0.107 | 40 | 0.577 | 35 | 129 | 326 | can transfect cells effectively |  |  |
| (BR)8(KRB)4(KRX)2KGSC-NH2 [G1-RX, 2-RB, 3-BR] | 0.108 | 41 | 0.403 | 56 | 130 | 70 |  |  |  |
| (YR)8(KRT)4(KRQ)2KGSC-NH2 [G1-RQ, 2-RT, 3-YR] | 0.135 | 41 | 0.409 | 54 | 130 | 100 |  |  |  |
| (LRLR)2KGSC-NH2 [G1-LRLR] | 0.264 | 40 | 0.581 | 49 | 122 | 250 |  |  |  |
| (lr)8(krl)4(krl)2kgsc-NH2 [D-G1,2-rl, 3-lr] | 0.148 | 43 | 0.246 | 53 | 134 | 73 |  |  |  |
| (R)2KRHC-NH2 [RHCG1-R] | 0.123 | 33 | 0.566 | 45 | 129 | 366 | can transfect cells effectively |  |  |
| (LR)8(KR)4(KRLR)2KRHC-NH2 [RHCG1-RLR, 2-R, 3-LR] | 0.136 | 41 | 0.439 | 59 | 121 | 75 |  |  |  |
| (LRLR)8(KLRLR)4(KLRLR)2KGSC-NH2 [G1,2,3-LRLR] | 0.133 | 45 | 0.287 | 50 | 130 | 80 |  |  |  |
| (RLR)4(KRLR)2KRHC-NH2 [RHCG1,2-RLR] | 0.154 | 39 | 0.214 |  | 116 | 83 |  |  |  |
| (HK)8(KKH)4(KKL)2KGSC-NH2 [G1-KL, 2-KH, 3-HK] | 0.237 | 35 | 0.126 | 49 | 131 | 103 |  |  |  |
| (QR)8(KRT)4(KRY)2KGSC-NH2 [G1-RY, 2-RT, 3-QR] | 0.16 | 42 | 0.178 | 52 | 126 | 95 |  |  |  |
| (RLR)2KRHC-NH2 [RHCG1-RLR] | 0.363 | 41 | 0.766 |  | 105 | 183 |  |  |  |
| (RLR)8(KRLR)4(KRLR)2KRHC-NH2 [RHCG1,2,3-RLR] | 0.154 | 42 | 0.299 | 56 | 130 | 73 |  |  |  |
| (MR)8(KRC)4(KRC)2KGSC-NH2 [G1-RC, 2-RC, 3-MR] | 0.148 | 43 | 0.19 | 56 | 121 | 87 |  |  |  |
| (R)8(KRL)4(KRLR)2KRHC-NH2 [RHCG1-RLR, 2-RL, 3-R] | 0.219 | 36 | 0.429 | 59 | 119 | 83 |  |  |  |
| (LRLR)4(KLRLR)2KGSC-NH2 [G1,2-LRLR] | 0.181 | 41 | 0.189 | 53 | 130 | 92 |  |  |  |
| (LR)8(KRL)4(KRL)2KYM-NH2 [YMG1,2-RL, 3-LR] | 0.116 | 35 | 0.213 | 56 | 117 | 73 |  |  |  |
